Experimental data: patent publication US20220260552A1, “Methods to determine the effect of an agent on mammalian embryonic development” (Toxys B.V., priority 2019, published 2022)

Assays:
[1] = tested on: mES cells differentiated towards cardiomyocytes; experiment: mES cell differentiation towards cardiomyocytes, beating embryoid bodies counted; assay type: cell-based, mouse; conditions: after 13 days of differentiation; FIG. 5B
Description: FIG. 5: Defective cardiomyocyte differentiation upon teratogenic compound exposure. mES cells were exposed to teratogenic compounds during mES cell differentiation towards cardiomyocytes. The percentage of beating 3D embryoid bodies (examples in A), representing functional cardiomyocytes, was counted. (B) Quantification of beating bodies. Presented values are expressed as percentages of control. Students t-test was used to determine significance. *p<0.05, **p<0.01, ***p<0.001.
For cardiomyocyte differentiation embryonic bodies were used, formed by hanging drops containing 750 cells in Iscoves's Modified Dulbecco's Medium (IMDM). Prior to hanging drop formation, cells were cultured on gelatine-coated dishes in IMDM supplemented with 20% FBS. Cells were detached with cell dissociation buffer (Gibco). After 3 days, embryonic bodies were transferred to a bacterial plate in differentiation medium (IMDM, 10% serum (unless specified otherwise), PS, NEAA and 2-mercapto ethanol). On day 5, the bodies were transferred to a 48-well plate in differentiation medium containing 2% serum, BMP, Activin A, Chir99021 and Xav939. On day 7 embryonic bodies were exposed to only Xav939 in differentiation medium and on day 11 all growth factors were removed and replaced with differentiation medium. Day 13 was used as endpoint for cardiomyocyte differentiation. On this day, beating bodies were quantified and RNA samples collected.

[2] = tested on: GFP-Ck18 mES reporter cells; experiment: mES GFP-Ck18 reporter cell differentiation towards hepatocytes, GFP fluorescence intensity; assay type: cell-based, mouse; conditions: after 21 days of differentiation; normalized to DAPI; FIG. 8
Experimental: FIG. 8: Defective hepatocyte differentiation upon teratogenic compound exposure. mES GFP-Ck18 reporter cells were exposed to different teratogenic compounds during mES cell differentiation towards hepatocytes. After 21 days, fluorescence intensity of the hepatocyte specific GFP-Ck18 reporter was measured using microscopy and quantified using Fiji image processing software. GFP intensity was normalized to nuclear intensity measured using DAPI. Presented values are expressed as percentages of control. Student t-test was used for determination of significance. *p<0.05 **p<0.01.*** p<0.001.
Hepatocyte differentiation was started from a monolayer of mES cells on day −1. On day 0, differentiation medium supplemented with Activin A was added. On day 4, the medium was replaced with liver differentiation medium (DMEM containing 10% serum, PS, NEAA and 2-mercaptoethanol) with aFGF and sodium butyrate. On day 9, the medium was replaced with liver differentiation medium containing HGF. On day 14, cells were exposed to liver differentiation medium containing Dexamethasone and Oncostatin M. From day 17 onwards, liver differentiation medium was refreshed every 3-4 days. Endpoint of differentiation was set on day 21.
mES cells were seeded on gelatin-coated culture dishes 24 h prior to transfection. […] GFP expression in differentiated cells was determined by flow cytometry.

[3] = tested on: hiPSC cells differentiated towards hepatocytes; experiment: hiPSC differentiation towards hepatocytes in presence of compound, biomarker expression by qPCR; assay type: cell-based, human
Experimental: The hepatocyte differentiation protocol is based on (Chen et al., 2012, which is incorporated herein by reference). In brief, hiPSC cells were seeded on day −4 in mTESR medium on Matrigel. On day 0 the mTESR medium was replaced with RPMI medium containing B27, Activin A, Chir99021, HGF and PS. On day 3, the cells were refreshed with DMEM medium containing KO serum replacement, Glutamax, NEAA, 2-mercaptoethanol, DMSO and PS. On day 7, the medium was replaced with IMDM medium containing oncostatin M, dexamethasone, ITS, Glutamax, NEAA and PS. On day 10, 14 and 17, cells are refreshed with IMDM medium containing ITS, Glutamax, NEAA and PS. RNA samples were collected on day 0, day 7 and day 21 of differentiation.
(§1) To assess the effect of potential teratogenic agents, hiPSC were treated with the test material from day 0 until the end of differentiation. When differentiation medium was refreshed, fresh compound was added.
(§2) Induction of the biomarker expression was compared with the expression of the gene in undifferentiated cells using quantitative real-time PCR (qRT-PCR). At several time points during differentiation, total RNA was isolated using Trizol […]. Complementary DNA was synthesized using oligo(dT) primers and SuperScript […] ReverseTranscriptase (Invitrogen) according to the manufacturer's protocol. Expression of biomarker genes was determined using specific primers (SEQ ID NOs: 68-99, 105 and 106) spanning the exon-exon boundaries of the genes with the PowerUP SYBR Green Master Mix (Applied Biosystems) on a Quantstudio 5 Real-Time PCR System (Applied Biosystems) using ROX as a passive reference. Relative expression was normalized using expression of the GAPDH and HPRT genes.

[4] = tested on: hiPSC cells differentiated towards neural rosettes; experiment: hiPSC differentiation towards neural rosettes in presence of compound, biomarker expression by qPCR; assay type: cell-based, human; conditions: compound added during differentiation, day 0 until end, FIG. 2
Experimental: The protocol for neural differentiation is based on (Lippmann, Estevez-Silva, & Ashton, 2014, which is incorporated herein by reference). In short, hiPSC were seeded in mTESR medium on Matrigel on day −1. On day 0, medium was replaced with E6 medium with PS to start differentiation. Medium was refreshed with E6 medium on Day 3 and 7. RNA samples were collected on day 0, day 7 and day 10.
as §1, §2

[5] = tested on: hiPSC cells differentiated towards cardiomyocytes; experiment: hiPSC differentiation towards cardiomyocytes in presence of compound, biomarker expression by qPCR; assay type: cell-based, human
Experimental: Briefly, on day −4, hiPSC cells were seeded in 24-well plates in mTESR medium on Matrigel. On day 0, the medium was replaced with BEL medium (IMDM, HF12 medium, PFHMII medium, BSA, ITS-X, CD lipids, α-Monothioglycerol, Glutamax, PS and ascorbic acid) containing BMP4, Activin A and Chir99021. At day 3 of differentiation, the medium was refreshed with BEL containing Xav939. On day 7 and 10 of differentiation, the medium was replaced with BEL without growth factors. RNA samples were collected on day 0, day 7 and day 14 of differentiation.
Induction of the biomarker expression was compared with the expression of the gene in undifferentiated cells using quantitative real-time PCR (qRT-PCR). At several time points during differentiation, total RNA was isolated using Trizol (Qiagen). Complementary DNA was synthesized using oligo(dT) primers and SuperScript VI ReverseTranscriptase (Invitrogen) according to the manufacturer's protocol. […] Relative expression was normalized using expression of the GAPDH and HPRT genes.

| beating cardiomyocytes (beating embryoid bodies) [1] | GFP-Ck18 intensity [2] | Expression of PAX6 in neural rosettes [4] | Expression of MYH6 in cardiomyocytes [5] | Expression of AFP in hepatocytes [3] | Expression of ALB in hepatocytes [3] | SMILES | biomarker expression during hepatocyte differentiation ([3]; compound present during differentiation, qPCR, T-test vs vehicle control, FIG. 3) |
| --- | --- | --- | --- | --- | --- | --- | --- |
| decrease | significantly reduced |  |  |  |  | O=c1[nH]cc(F)c(=O)[nH]1 [5′fluoracil, 5-fluorouracil] |  |
|  |  |  |  |  |  | C=CC(N)=O [acrylamide] | no significant reduction |
| decrease |  |  |  |  |  | O=C1NC(=O)C(c2ccccc2)(c2ccccc2)N1 [diphenylhydantoin] |  |
| decrease | significantly reduced | reduced | reduced | reduced | reduced | CC1=C(/C=C/C(C)=C/C=C/C(C)=C/C(=O)O)C(C)(C)CCC1 [retinoic acid, All-trans retinoic acid] |  |
